Experimental findings from patent US10744457B2, “Electrochemical separator” (Hamilton Sundstrand Corporation, priority 2017, dated 2020) are described below.

This data set in a line: susceptibility to oxidation in the presence of free oxygen. Conditions: inferred from redox potential. In kind it is physicochemical. From the text:
Another example would be an anthraquinone functionalized with sulfonate groups, such as 2,7 anthraquinone disulfonic acid. The 1,2 benzoquinone disulfonic acid has a higher reduction-oxidation potential than anthraquinone (approximately 0.8V versus 0.2V, as determined against a reversible hydrogen electrode).

Structures are written as SMILES.

With `O=C1c2ccc(S(=O)(=O)O)cc2C(=O)c2cc(S(=O)(=O)O)ccc21` [2,7 anthraquinone disulfonic acid], the “oxidation in the presence of oxygen” value is on record as “more susceptible to oxidation in the presence of free oxygen”.
